Reference: patent US20230265151A1, “GIP/GLP1 CO-AGONIST COMPOUNDS” (priority 2020, published 2023)
Like-named read-outs stand apart in the source and are kept apart here.

How the values were obtained:
[1] = biological target: T1, human GLP-1 receptor (hGLP-1R) (Homo sapiens, UniProt P43220); test: [125I]-GLP-1 binding, SPA with membranes of HEK293 cells expressing hGLP-1R; settings: human GLP-1R; geometric mean (SEM, n); read-out: Binding Affinity Ki, nM (SEM, n) hGLP-1R
T1 construct: expressed in transfected cells; crude membranes
T1 sequence (P43220 24-463): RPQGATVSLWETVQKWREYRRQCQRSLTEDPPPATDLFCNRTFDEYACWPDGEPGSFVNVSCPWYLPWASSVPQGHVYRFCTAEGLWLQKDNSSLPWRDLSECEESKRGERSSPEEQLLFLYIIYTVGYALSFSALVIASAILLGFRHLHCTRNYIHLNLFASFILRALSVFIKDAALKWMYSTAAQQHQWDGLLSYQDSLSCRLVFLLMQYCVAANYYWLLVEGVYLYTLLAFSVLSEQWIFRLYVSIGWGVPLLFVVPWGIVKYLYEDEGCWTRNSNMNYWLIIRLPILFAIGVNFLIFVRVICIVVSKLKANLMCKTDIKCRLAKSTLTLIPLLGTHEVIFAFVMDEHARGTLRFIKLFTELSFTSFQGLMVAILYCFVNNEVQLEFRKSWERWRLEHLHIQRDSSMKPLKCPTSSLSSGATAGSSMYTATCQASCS

[2] = biological target: T2, human GIP receptor (hGIPR) (Homo sapiens, UniProt P48546); test: [125I]-GIP binding, SPA with membranes of CHO cells expressing hGIPR; settings: human GIPR; geometric mean (SEM, n); read-out: Binding Affinity Ki, nM (SEM, n) hGIPR
T2 construct: expressed in transfected cells; crude membranes
T2 sequence (P48546 22-466): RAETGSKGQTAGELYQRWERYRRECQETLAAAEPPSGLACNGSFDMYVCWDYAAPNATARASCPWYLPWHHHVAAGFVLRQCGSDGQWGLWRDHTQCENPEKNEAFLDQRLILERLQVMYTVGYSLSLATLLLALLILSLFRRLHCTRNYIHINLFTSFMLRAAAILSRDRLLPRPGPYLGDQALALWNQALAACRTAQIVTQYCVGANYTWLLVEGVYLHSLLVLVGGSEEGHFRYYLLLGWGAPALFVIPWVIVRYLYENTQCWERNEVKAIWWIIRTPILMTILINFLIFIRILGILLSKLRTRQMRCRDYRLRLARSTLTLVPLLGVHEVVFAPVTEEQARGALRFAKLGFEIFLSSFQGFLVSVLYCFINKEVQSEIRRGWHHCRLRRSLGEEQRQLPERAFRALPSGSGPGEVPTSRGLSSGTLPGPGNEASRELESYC

[3] = biological target: T3, hGIPR (Homo sapiens, UniProt P48546); test: Functional cAMP formation (HTRF) in HEK-293 clonal cells expressing hGIPR, 0.1% bovine casein, without or with 1.0% human serum albumin; format: cell-based; settings: 37° C.; for Emax: percent of maximal response to GIP(1-42)NH2, read-out: hGIPR Emax, % ± SEM; for EC50: geometric mean, read-out: hGIPR EC50, nM (SEM, n)
T3 construct: expressed in transfected cells
T3 sequence (P48546 22-466): T2 sequence (P48546 22-466)
Procedure, shortened: (§1)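 Cells were stimulated with peptide for 30 min at 37° C, then intracellular cAMP was measured by competitive HTRF (665/620 nm ratio) and converted to nM using a cAMP standard curve. Relative EC50 and Emax came from four-parameter logistic fits of percent maximal response against peptide concentration.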

[4] = biological target: T4, hGCGR (Homo sapiens, UniProt P47871); test: Functional cAMP formation (HTRF) in HEK-293 clonal cells expressing hGCGR, 0.1% bovine casein, without or with 1.0% human serum albumin; format: cell-based; settings: read-out: hGCGR EC50, nM (SEM, n)
T4 construct: expressed in transfected cells
T4 sequence (P47871 26-477): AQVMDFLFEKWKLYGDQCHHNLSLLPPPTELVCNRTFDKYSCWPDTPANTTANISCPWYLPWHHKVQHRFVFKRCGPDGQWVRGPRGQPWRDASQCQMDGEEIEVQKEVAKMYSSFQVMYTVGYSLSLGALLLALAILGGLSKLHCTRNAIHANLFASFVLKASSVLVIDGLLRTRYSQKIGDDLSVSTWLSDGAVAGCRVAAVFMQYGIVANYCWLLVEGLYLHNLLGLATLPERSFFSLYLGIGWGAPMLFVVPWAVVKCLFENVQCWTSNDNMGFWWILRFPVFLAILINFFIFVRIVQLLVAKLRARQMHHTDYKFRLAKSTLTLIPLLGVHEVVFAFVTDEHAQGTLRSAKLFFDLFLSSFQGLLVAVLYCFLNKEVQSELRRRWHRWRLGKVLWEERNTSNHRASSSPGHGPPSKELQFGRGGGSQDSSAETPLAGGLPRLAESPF
Procedure, shortened: as §1

[5] = biological target: hGLP-1R (Homo sapiens, UniProt P43220); test: Functional cAMP formation (HTRF) in HEK-293 clonal cells expressing hGLP-1R, 0.1% bovine casein, without or with 1.0% human serum albumin; format: cell-based; set-up: expressed in transfected cells; settings: for EC50: read-out: hGLP-1R EC50, nM (SEM, n); for Emax: HEK293, cAMP, percent of maximal response to GLP-1(7-36)NH2, read-out: hGLP-1R Emax, % ± SEM
Sequence of hGLP-1R (P43220 24-463): as the sequence (P43220 24-463) above
Procedure, shortened: as §1

[6] = HEK293, cAMP, 0.1% bovine casein and 1.0% human serum albumin
[7] = cAMP, 0.1% bovine casein (no human serum albumin)
[8] = cAMP, 37° C., 0.1% bovine casein (no human serum albumin), geometric mean
[9] = cAMP, 37° C., 0.1% bovine casein and 1.0% human serum albumin, geometric mean (SEM, n)
[10] = HEK293, 0.1% bovine casein and 1.0% human serum albumin
[11] = 0.1% bovine casein and 1.0% human serum albumin, 37° C., geometric mean
[12] = cAMP, incubated at 37° C., 0.1% bovine casein (no human serum albumin), geometric mean

| SMILES | Ki [1] | Ki [2] | Emax [3, 6] | EC50 [3, 7] | EC50 [4, 8] | EC50 [4, 9] | EC50 [5, 8] | EC50 [5, 9] | Emax ([5]; 37° C., 0.1% bovine casein and 1.0% human serum albumin) | Emax ([5]; 37° C., 0.1% bovine casein, arithmetic mean) | EC50 ([3]; 0.1% bovine casein and 1.0% human serum albumin) | Emax [3, 10] | EC50 [4, 11] | EC50 [4, 12] | EC50 [5, 11] | EC50 [5, 12] |
| --- | --- | --- | --- | --- | --- | --- | --- | --- | --- | --- | --- | --- | --- | --- | --- | --- |
| CCCCCCCCCCCC(=O)N[C@@H](CCC(=O)NCCOCCOCC(=O)NCCOCCOCC(=O)NCCOCCOCC(=O)NCCCC[C@H](NC(=O)[C@H](CCCN)NC(=O)[C@H](CC(=O)O)NC(=O)[C@H](CC(C)C)NC(=O)[C@](C)(CC(C)C)NC(=O)[C@@H](NC(=O)C(C)(C)NC(=O)[C@H](CCCCNC(=O)COCCOCCNC(=O)COCCOCCNC(=O)COCCOCCNC(=O)CC[C@H](NC(=O)CCCCCCCCCCC)C(=O)O)NC(=O)[C@H](CC(=O)O)NC(=O)[C@H](CO)NC(=O)[C@@H](NC(=O)[C@](C)(Cc1ccccc1F)NC(=O)[C@@H](NC(=O)CNC(=O)[C@H](CCC(=O)O)NC(=O)C(C)(C)NC(=O)[C@@H](N)Cc1ccc(O)cc1)[C@@H](C)O)[C@@H](C)O)[C@@H](C)CC)C(=O)N[C@@H](C)C(=O)N[C@@H](CCC(N)=O)C(=O)NC(C)(C)C(=O)N[C@@H](CCCN)C(=O)N[C@@H](Cc1ccccc1)C(=O)N[C@H](C(=O)N[C@H](CCC(=O)O)C(=O)N[C@@](C)(Cc1ccc(O)cc1)C(=O)N[C@@H](CC(C)C)C(=O)N[C@H](C(=O)N[C@@H](CCC(=O)O)C(=O)NCC(=O)NCC(=O)N1CCC[C@H]1C(=O)N[C@@H](CO)C(=O)N[C@@H](CO)C(=O)NCC(=O)N[C@@H](C)C(=O)N1CCC[C@H]1C(=O)N1CCC[C@H]1C(=O)N1CCC[C@H]1C(=O)N[C@@H](CO)C(N)=O)[C@@H](C)CC)[C@@H](C)CC)C(=O)O [Example 432] | 0.134 nM | 0.0134 nM | 96.7% | 0.00602 nM | > 9950 nM | > 9950 nM | 0.0549 nM | 1.28 nM |  |  |  |  |  |  |  |  |
| CCCCCCCCCCCC(=O)N[C@@H](CCC(=O)NCCOCCOCC(=O)NCCOCCOCC(=O)NCCCC[C@H](NC(=O)[C@H](CO)NC(=O)[C@@H]1CCCN1C(=O)[C@@H]1CCCN1C(=O)[C@@H]1CCCN1C(=O)[C@H](C)NC(=O)CNC(=O)[C@H](CO)NC(=O)[C@H](CO)NC(=O)[C@@H]1CCCN1C(=O)CNC(=O)CNC(=O)[C@H](CCC(=O)O)NC(=O)[C@@H](NC(=O)[C@H](CC(C)C)NC(=O)[C@](C)(Cc1ccc(O)cc1)NC(=O)[C@@H](CCC(=O)O)NC(=O)[C@@H](NC(=O)[C@H](Cc1ccccc1)NC(=O)[C@H](CCC(=O)O)NC(=O)C(C)(C)NC(=O)[C@H](CCC(N)=O)NC(=O)[C@H](C)NC(=O)[C@H](CCCCNC(=O)COCCOCCNC(=O)COCCOCCNC(=O)CC[C@H](NC(=O)CCCCCCCCCCC)C(=O)O)NC(=O)[C@H](CCCN)NC(=O)[C@H](CC(=O)O)NC(=O)[C@H](CC(C)C)NC(=O)[C@](C)(CC(C)C)NC(=O)[C@@H](NC(=O)C(C)(C)NC(=O)[C@H](Cc1ccncc1)NC(=O)[C@H](CC(=O)O)NC(=O)[C@H](CO)NC(=O)[C@@H](NC(=O)[C@](C)(Cc1ccccc1F)NC(=O)[C@@H](NC(=O)CNC(=O)[C@H](CCC(=O)O)NC(=O)C(C)(C)NC(=O)[C@@H](N)Cc1ccc(O)cc1)[C@@H](C)O)[C@@H](C)O)[C@@H](C)CC)[C@@H](C)CC)[C@@H](C)CC)C(N)=O)C(=O)O [Example 324] | 0.168 nM | 0.0163 nM | 85.4% | 0.00632 nM | > 9950 nM | > 9950 nM | 0.0647 nM | 4.38 nM | 99.4% | 97.6% |  |  |  |  |  |  |
| CCCCCCCCCCCC(=O)N[C@@H](CCC(=O)NCCOCCOCC(=O)NCCOCCOCC(=O)NCCCC[C@H](NC(=O)CNC(=O)CNC(=O)[C@H](CCC(=O)O)NC(=O)[C@@H](NC(=O)[C@H](CC(C)C)NC(=O)[C@](C)(Cc1ccc(O)cc1)NC(=O)[C@@H](CCC(=O)O)NC(=O)[C@@H](NC(=O)[C@H](Cc1ccccc1)NC(=O)[C@H](CCC(=O)O)NC(=O)C(C)(C)NC(=O)[C@H](CCC(N)=O)NC(=O)[C@H](C)NC(=O)[C@H](CCCCNC(=O)COCCOCCNC(=O)COCCOCCNC(=O)CC[C@H](NC(=O)CCCCCCCCCCC)C(=O)O)NC(=O)[C@H](CCCN)NC(=O)[C@H](CC(=O)O)NC(=O)[C@H](CC(C)C)NC(=O)[C@](C)(CC(C)C)NC(=O)[C@@H](NC(=O)[C@H](CO)NC(=O)[C@H](Cc1ccncc1)NC(=O)[C@H](CC(=O)O)NC(=O)[C@H](CO)NC(=O)[C@@H](NC(=O)[C@](C)(Cc1ccccc1F)NC(=O)[C@@H](NC(=O)CNC(=O)[C@H](CCC(=O)O)NC(=O)C(C)(C)NC(=O)[C@@H](N)Cc1ccc(O)cc1)[C@@H](C)O)[C@@H](C)O)[C@@H](C)CC)[C@@H](C)CC)[C@@H](C)CC)C(=O)N[C@@H](CO)C(=O)N[C@@H](CO)C(=O)NCC(=O)N[C@@H](C)C(=O)N1CCC[C@H]1C(=O)N1CCC[C@H]1C(=O)N1CCC[C@H]1C(=O)N[C@@H](CO)C(N)=O)C(=O)O [Example 5] | 0.154 nM | 0.0309 nM |  |  |  |  |  |  |  |  | 0.372 nM | 91.2 ± 3.65% | > 9950 nM | > 9150 nM | 4.78 nM | 0.057 nM |
| CCCCCCCCCCCCCCCC(=O)N[C@@H](CCC(=O)NCCOCCOCC(=O)NCCOCCOCC(=O)NCCCC[C@H](NC(=O)[C@H](CCCN)NC(=O)[C@H](CC(=O)O)NC(=O)[C@H](CC(C)C)NC(=O)[C@](C)(CC(C)C)NC(=O)[C@@H](NC(=O)[C@H](CO)NC(=O)[C@H](Cc1ccncc1)NC(=O)[C@H](CC(=O)O)NC(=O)[C@H](CO)NC(=O)[C@@H](NC(=O)[C@](C)(Cc1ccccc1F)NC(=O)[C@@H](NC(=O)CNC(=O)[C@H](CCC(=O)O)NC(=O)C(C)(C)NC(=O)[C@@H](N)Cc1ccc(O)cc1)[C@@H](C)O)[C@@H](C)O)[C@@H](C)CC)C(=O)N[C@@H](C)C(=O)N[C@@H](CCC(N)=O)C(=O)NC(C)(C)C(=O)N[C@@H](CCC(=O)O)C(=O)N[C@@H](Cc1ccccc1)C(=O)N[C@H](C(=O)N[C@H](CCC(=O)O)C(=O)N[C@@](C)(Cc1ccc(O)cc1)C(=O)N[C@@H](CC(C)C)C(=O)N[C@H](C(=O)N[C@@H](CCC(=O)O)C(=O)NCC(=O)N[C@@H](CCCCNC(=O)COCCOCCNC(=O)COCCOCCNC(=O)CC[C@H](NC(=O)CCCCCCCCCCCCCCC)C(=O)O)C(=O)N1CCC[C@H]1C(=O)N[C@@H](CO)C(=O)N[C@@H](CO)C(=O)NCC(=O)N[C@@H](C)C(=O)N1CCC[C@H]1C(=O)N1CCC[C@H]1C(=O)N1CCC[C@H]1C(=O)N[C@@H](CO)C(N)=O)[C@@H](C)CC)[C@@H](C)CC)C(=O)O [Example 24] | 0.52 nM | 0.0361 nM |  |  |  |  |  |  |  |  |  | 92.4 ± 5.97% | > 9950 nM | > 9950 nM | 2.04 nM | 0.0063 nM |
